Series [1] is described as follows: Decomposition in aqueous solution. Conditions: neutral pH, room temperature (20–25° C.). Format: physicochemical. The source says:
. Many dipeptide derivatives with a free N terminal amino group and a functional group (such as a difluoromethyl ketone) on the C-terminus are similarly unstable due to intramolecular reaction. A six member ring is formed between the amino and C-terminal functional groups and undergoes subsequent further reaction, such as hydrolysis.

The subject of series [2] is HIV-1-IIIB in A3.5 cells. Put plainly: HIV-1 replication in A3.5 cells (p24 antigen ELISA). Format: cell-based. The source says:
[…]. The rational for these experiments comes from the reported connection between T-cell activation, IL-2 production, and HIV replication and expression of HIV proteins.
Cell lines used in the present studies include A3.5 cells (a monocyte cell line which is CD4+, HLA−DR+, and CD3—) and peripheral blood mononuclear cells (PBMC). The A3.5 cells grow continuously in culture without exogenous growth factors. PBMC cells require IL-2 for propagation in vitro. Cells were infected with HIV-1-IIIB at a multiplicity of infection (moi) of 5×10^−4 tissue culture infectious dose 50 (TCID50)/cell for both the A3.5 cells and the PMBC cells. Dilutions of inhibitor were made in RPMI-1640 and subsequently passed through a 0.22 um filter. At the start of each experiment, 1×10^6 cells/well, in 24-well plates, were infected with HIV-1-IIIB at the moi indicated above. Inhibitor was added simultaneously at the appropriate dilutions. All cultures were maintained at 5% CO2 and 37° C. in RPMI-1640 supplemented with penicillin, streptomycin, L-glutamine, hepes buffer, and 20% heat-inactivated fetal calf serum. Cell counts and viability were determined by trypan blue exclusion. Culture supernatants were harvested and assayed for HIV-1 p24 antigen by ELISA (NEN-DuPont, Boston, Mass.). Fresh media and inhibitor were added on each day. […]
(In general: In an ELISA, binding on a coated surface is turned into a signal by an enzyme label.)

Series [3] addresses T1, DP-IV isolated from porcine kidneys (Sus scrofa, UniProt P22411).
T1 construct: DP-IV is purified from pig kidney cortex by the method of Barth et al; from tissue; host or cells: pig kidney cortex
The experiment in a line: DP-IV inhibition, hydrolysis of Ala-Pro-p-nitroanilide. It counts as biochemical, pig. Particulars: for Inhibition of / affinity for DP-IV (in words): N terminus blocked. How it is done: Briefly, a reaction containing 50 μmol sodium Hepes (pH 7.8), 10 μmol Ala-Pro-p-nitroanilide, 6 milliunits of DP-IV, and 2% (vol/vol) dimethylformamide in a total volume of 1.0 ml. The reaction was initiated by the addition of enzyme and reaction rates were measured at 25° C.
Th rates of DP-IV-catalyzed hydrolysis of Ala-Pro-p-nitroanilide were determined at 3 to 5 different concentration of Ala-boroPro Pro-boroPro, boroPro and N-Boc-Ala-boroPro.

Series [4] concerns the target T2, DP-IV from human placenta (Homo sapiens, UniProt P27487).
T2 construct: and from human placenta by the method of Puschel et al; from tissue; host or cells: human placenta
Put plainly: DP-IV inhibition, enzyme from human placenta. It counts as biochemical.

pKi: −log10 of the molar value.

T1 sequence (P22411 whole entry): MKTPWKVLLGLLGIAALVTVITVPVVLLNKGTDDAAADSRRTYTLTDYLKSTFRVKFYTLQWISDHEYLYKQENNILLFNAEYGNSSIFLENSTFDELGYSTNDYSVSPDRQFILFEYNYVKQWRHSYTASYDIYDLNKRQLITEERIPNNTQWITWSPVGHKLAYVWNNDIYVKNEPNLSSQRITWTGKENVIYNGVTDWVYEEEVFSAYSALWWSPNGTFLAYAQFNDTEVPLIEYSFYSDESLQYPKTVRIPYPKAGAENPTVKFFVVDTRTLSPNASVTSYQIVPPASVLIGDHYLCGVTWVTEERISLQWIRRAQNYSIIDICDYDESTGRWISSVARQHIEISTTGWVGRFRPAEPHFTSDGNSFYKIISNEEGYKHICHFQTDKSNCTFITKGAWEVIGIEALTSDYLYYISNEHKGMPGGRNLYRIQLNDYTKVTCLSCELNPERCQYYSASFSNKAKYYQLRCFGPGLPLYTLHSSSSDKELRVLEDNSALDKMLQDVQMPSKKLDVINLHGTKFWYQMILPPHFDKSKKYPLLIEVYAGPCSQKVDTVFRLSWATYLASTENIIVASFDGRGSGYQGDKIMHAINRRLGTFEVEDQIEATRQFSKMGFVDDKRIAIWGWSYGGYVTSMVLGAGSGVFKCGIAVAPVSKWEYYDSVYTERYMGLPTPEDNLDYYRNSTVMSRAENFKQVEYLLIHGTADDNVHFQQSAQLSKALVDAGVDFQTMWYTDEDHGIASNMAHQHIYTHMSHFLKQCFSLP
T2 sequence (P27487 whole entry): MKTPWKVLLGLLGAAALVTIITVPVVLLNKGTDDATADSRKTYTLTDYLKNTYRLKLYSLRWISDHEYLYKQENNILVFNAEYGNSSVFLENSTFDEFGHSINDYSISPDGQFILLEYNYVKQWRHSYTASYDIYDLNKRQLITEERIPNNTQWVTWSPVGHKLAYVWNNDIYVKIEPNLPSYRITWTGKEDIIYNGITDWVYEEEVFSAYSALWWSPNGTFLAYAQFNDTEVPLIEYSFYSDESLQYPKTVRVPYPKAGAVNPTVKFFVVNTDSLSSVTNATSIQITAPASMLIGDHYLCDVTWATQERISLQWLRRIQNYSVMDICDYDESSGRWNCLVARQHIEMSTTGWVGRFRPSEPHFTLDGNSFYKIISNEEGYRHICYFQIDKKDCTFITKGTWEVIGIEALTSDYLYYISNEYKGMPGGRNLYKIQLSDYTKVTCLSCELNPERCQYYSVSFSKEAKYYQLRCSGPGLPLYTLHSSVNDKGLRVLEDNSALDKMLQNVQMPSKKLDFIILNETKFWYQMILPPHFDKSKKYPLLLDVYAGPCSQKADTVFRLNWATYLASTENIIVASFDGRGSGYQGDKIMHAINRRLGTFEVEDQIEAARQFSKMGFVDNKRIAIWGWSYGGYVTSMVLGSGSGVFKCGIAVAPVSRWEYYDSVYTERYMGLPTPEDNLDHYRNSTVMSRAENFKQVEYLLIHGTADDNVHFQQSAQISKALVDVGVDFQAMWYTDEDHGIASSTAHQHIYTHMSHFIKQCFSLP

For orientation: half-life means how long it takes for the measured level to halve. A higher half-life goes with slow decline. `C[C@H](N)C(=O)N1CCCC1B(O)O` (mixture of isomers) [Ala-boroPro, H-Ala-boroPro] had a half-life in series [1] of approximately 0.5 h. Also, the “Suppression of HIV (p24 antigen)” value in series [2] (A3.5 cells infected with HIV-1-IIIB) is on record as “suppresses HIV below detectable levels”.
The pKi is the Ki on a negative log10 scale, so that one unit is a factor of ten. Read a low pKi as a large Ki. In turn, `O=C([C@@H]1CCCN1)N1CCCC1B(O)O` (mixture of isomers) [Pro-boroPro, H-Pro-boroPro] had a pKi in series [3] of 8.52. For the same compound, the “Ki for DP-IV (in words)” value in series [3] (pig kidney DP-IV) is recorded as “nanomolar range”. Besides, in series [3] (relative to H-Ala-boroPro), the “Affinity for DP-IV, fold less than that of H-Ala-boroPro” value was “about 10 fold”. Also, in series [4], the “Inhibition of DP-IV from human placenta compared with pig kidney enzyme” value is given as “equally well”. The half-life in series [1] was approximately 1.5 h.
Turning to `Cc1cn([C@H]2C[C@H](N=[N+]=[N-])[C@@H](CO)O2)c(=O)[nH]c1=O` [AZT, zidovudine, reference compound], the “Anti-HIV effect (p24 antigen)” value in series [2] (1 μM, A3.5 cells) is listed as “anti-HIV effect”.
Compound `OB(O)C1CCCN1` (stereo not shown) [BoroPro, boroProline] gave a negative logarithm of the Ki (pKi) in series [3] of 3.96. In series [3] (relative to Ala-boroPro or Pro-boroPro, Table 1), the “Decrease in affinity on going from Ala-boroPro or Pro-boroPro” value is given as 10^5–10^6.
In the case of `CC(NC(=O)OC(C)(C)C)C(=O)N1CCCC1B(O)O` (stereo not drawn) [N-Boc-Al-boroPro, N-Boc-Ala-boroPro], in series [3], the negative logarithm of the Ki (pKi) was less than 3.00 and the “Inhibition of / affinity for DP-IV (in words)” value is listed as “abolished inhibition”. Besides, the “Inhibition of / affinity for DP-IV (in words)” value in series [3] (listed as Boc-blocked Ala-boroPr) is on record as “no affinity”.

The record behind these values is US7230074B2, “Inhibitors of dipeptidyl-aminopeptidase type IV” (Trustees of Tufts College, priority 1991, dated 2007).
